In PMC11650737, “Developing MYC Degraders Bearing the Von Hippel–Lindau Ligand to Target the “Undruggable” MYC” (ACS Pharmacology & Translational Science, 2024):
Entries after “also recorded” stand apart in the source; their conditions may differ.

Legend:
[1] = system: MYC:MAX complex; test: In vitro MYC-MAX binding assay (GST pull-down); assay type: biochemical; conditions: compound 150 μM
Method: To assess whether the new degraders affect direct interaction of MYC with MAX, we employed a pull-down approach using recombinant proteins that correspond to the bHLHZ regions of MYC and MAX. GST-MYC, bound to glutathione sepharose beads, was incubated with the pyrazole compounds, followed by incubation with His-MAX. Finally, the complex of GST-MYC/HisMAX was eluted by the addition of excess glutathione, while the amount of the eluted complex was assessed by western blotting using anti-MAX antibodies (Figure 5).
Figure 5 Inhibition of the formation of the MYC:MAX complex by the pyrazole compounds. The indicated compounds (150 μM), or the solvent alone (DMSO, used as a control), were incubated with GST-MYC containing glutathione beads for 10 min at […], followed by incubation with His-MAX. […] The complex of GST-MYC:His-MAX was eluted by incubation of the beads with free glutathione. The amount of the eluted complex was analyzed by western blotting (presented in the inset), using anti-MAX antibodies, while the protein bands were quantified with the ImageJ software. The intensity of the bands is presented in the bar graph. […] Statistics were based on the unpaired two-tailed student’s t-test. Data are shown as mean ± SEM.
MYC–MAX complex formation assays were performed using recombinantly produced GST-MYC and His-MAX proteins, following the glutathione GST pull-down principle (Lentzaris et al., in preparation). In this assay, recombinant GST-MYC bound to glutathione beads was preincubated with the indicated compound or vehicle […]. As a negative control, empty beads, i.e., not loaded with GST-MYC, were used. The formed complex was eluted with glutathione, while the amount of bound MAX (indicating the amount of the generated complex) was assessed by Western blotting using anti-MAX antibodies (Abcam) and quantified based on the image J free software. All assays were carried out at least three independent times.

[2] = system: SKBR3 cells; test: Cell viability (MTT) assay, SKBR3; assay type: cell-based, human; conditions: Homo sapiens, SK-BR-3, 72 h, read-out: IC50 (antiproliferative effect)
Method: (§1) The antiproliferative activity of the synthesized compounds was tested in cell viability assays optimally set up for various cancer cell lines (results are depicted in Table 2, n = 3, average IC50 (μM) ± SD).
(§2) Cells were plated at a density of 5 × 10^3 cells per well on 96-well plates. After 24 h of incubation (37 °C, 5% CO2), the cell medium was removed, and compounds were added at selected concentrations (0.1–100 μM), followed by incubation for 72 h. Control cells were treated with 0.4% DMSO medium to match the conditions in the wells where drugs were added. After 72 h, the medium was removed, and the 3-(4,5-dimethylthiazol-2-yl)-2,5-diphenyltetrazolium bromide (MTT) solution (0.3 mg/mL in PBS) was added to cells for 3 h under no light conditions. The MTT solution was removed, and the formazan crystals were dissolved in 100 μL of DMSO. The optical density was measured at 570 nm with a reference wavelength of 690 nm using an absorbance microplate reader (SpectraMax 190, Molecular Devices, Sunnyvale, CA, USA). The half-maximal inhibitory concentration (IC50) was calculated based on a four-parameter logistic equation, generating a cell viability curve, using GraphPad Prism 6.01 (GraphPad Software, Inc.). Two concentrations of an established drug, Docetaxel (100 nM and 1 nM), were used in each experiment as a positive control. The resulting absorbance values were used instead of IC50 calculation. Each point was the result of three independent experiments performed in triplicate.

[3] = system: various cancer cell lines; test: Cell viability (MTT) assay, cell line not singled out; assay type: cell-based; conditions: Homo sapiens, 72 h, summary over cancer cell lines (breast and prostate), read-out: IC50 (antiproliferative activity)
Method: as §1
as §2, with “Two concentrations of an established drug, Docetaxel (100 nM and 1 nM), were used in each experiment as a positive control.” left out, “Each point was the result of three independent experiments performed in triplicate.” left out

[4] = target: T1, c-MYC (Homo sapiens, UniProt P01106); test: MYC degradation in PC3 cells, Western blot; assay type: cell-based
T1 construct: endogenous in cells; host or cells: PC3
T1 sequence (P01106 whole entry): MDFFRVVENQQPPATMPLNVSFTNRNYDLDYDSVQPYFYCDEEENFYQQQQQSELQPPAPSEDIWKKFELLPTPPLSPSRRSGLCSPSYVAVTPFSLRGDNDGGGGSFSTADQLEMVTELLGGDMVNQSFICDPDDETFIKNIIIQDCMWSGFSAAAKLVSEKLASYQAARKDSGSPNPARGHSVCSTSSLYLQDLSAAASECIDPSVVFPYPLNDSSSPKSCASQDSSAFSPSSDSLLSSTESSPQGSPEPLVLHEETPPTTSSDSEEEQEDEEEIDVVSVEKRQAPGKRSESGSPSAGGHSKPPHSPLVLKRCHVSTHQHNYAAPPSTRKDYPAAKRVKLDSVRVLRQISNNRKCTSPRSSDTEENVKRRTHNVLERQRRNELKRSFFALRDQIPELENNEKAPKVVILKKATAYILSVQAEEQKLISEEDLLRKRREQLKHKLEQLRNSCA
Method: The ability of novel compounds to induce MYC degradation in the PC3 cell line was evaluated via a Western blot-based assay. […] A PROTAC that effectively degrades bromodomain and extra-terminal (BET) family proteins, with indirect action on MYC levels, BETd-260, was also included in these experiments as a positive control. BETd-260 was tested at a lower concentration (1 μΜ) due to its high potency.[26]
PC3 cells were used for the determination of MYC levels after treatment with the PROTACs under study. Cells (at a density of 250 000 per well) were seeded in 6-well plates for 24 h until 60% confluence. During the 24-h incubation period, cells were treated with the tested compounds (10 μΜ) and BETd-260 (1 μΜ) that was used as a positive control. For rescue experiments, cells were pretreated with the inhibitor MG-132 for 2 h, and then, the medium was removed, followed by the addition of the selected compound. After the 24-h incubation period, a cell lysis protocol was performed. The medium was removed, and the cells were rinsed with cold PBS. Lysis was induced using RIPA lysis buffer (50 mM Tris-HCl at pH 7.5, 150 mM NaCl, 5 mM Na2EDTA, 1 mM EGTA, 0.1% SDS, 1% NP-40, 0.5% sodium deoxycholate, 8 mM sodium fluoride, and 1 mM sodium orthovanadate) and protease inhibitor cocktail (Roche, UK). Total protein concentration in lysate samples was determined via performance of the Bradford assay in bovine serum albumin (BSA). Standard and unknown samples were preformulated in Coomassie blue G-250 assay reagent (Thermo Fisher Scientific, MA, USA), followed by a readout at 595 nm. Separation of the protein isolated from PC3 lysates, respectively (10 μg), with NuPAGE sample reducing agent and NuPAGE LDS sample buffer (Invitrogen, UK), was achieved via SDS-PAGE electrophoresis at 110 V for 2 h, prior to overnight transfer to the polyvinylidene difluoride (PVDF) membrane. The membranes were then blocked in 5% nonfat dry milk in Tris-buffered saline with 0.1% Tween-20 (TBST-T) for 1 h at room temperature.
Detection of MYC in PC3 cells was accomplished via immunoblot of the POI with the indicated monoclonal antibody (Cell Signaling Technology, MA, USA, catalog number #5605) at 1:1000 in TBST at […] overnight. The secondary anti-rabbit peroxidase-conjugate antibody (Cell Signaling Technology, MA, USA, catalog number #7074) was further added at 1:2000 dilution, followed by 1-h incubation at room temperature. Chemiluminescent visualization of the MYC protein bands was performed after the addition of Immobilon Crescendo Western HRP substrate (Sigma-Aldrich, Munich, Germany). For normalization of MYC concentration, GAPDH was labeled using the specific rabbit monoclonal antibody (Cell Signaling Technology, MA, USA, catalog number #5174) at 1:20000 in 5% nonfat dry milk. Protein bands were quantified with the ImageJ software.

| Structure (SMILES) | inhibition of MYC:MAX complex formation (binding of His-MAX to GST-MYC) [1] | IC50 [2] | IC50 [3] | dose dependence of MYC degradation ([4]; 1–20 μΜ, 24 h) | c-MYC degradation after short treatment ([4]; 10 μΜ, 3 h) | MYC degradation (MYC levels by Western blot) ([4]; 10 μΜ, 24 h) | MYC levels after pretreatment with proteasome inhibitor MG-132 ([4]; MG-132 10 μΜ 2 h, then compound 10 μΜ 24 h, versus control group) |
| --- | --- | --- | --- | --- | --- | --- | --- |
| Cc1ncsc1-c1ccc(CNC(=O)[C@@H]2C[C@@H](O)CN2C(=O)[C@@H](NC(=O)CCC(=O)NCCCOc2ccc(-c3cc(C(F)(F)F)nn3C)c(O)c2-c2cc(C(F)(F)F)cc(C(F)(F)F)c2)C(C)(C)C)cc1 [CSI86] | no effect on MYC/MAX dimerization | 15 ± 4 µM | 13 to 18 µM | – | – | – | – |
| Cc1ncsc1-c1ccc(CNC(=O)[C@@H]2C[C@@H](O)CN2C(=O)[C@@H](NC(=O)CCCC(=O)NCCCOc2ccc(-c3cc(C(F)(F)F)nn3C)c(O)c2-c2cc(C(F)(F)F)cc(C(F)(F)F)c2)C(C)(C)C)cc1 [CSI107] | inhibited the binding of HisMAX to MYC; also recorded: inhibits dimerization | 14 ± 2 µM | 13 to 18 µM | dose-dependent manner | effectively mediated c-MYC degradation | significantly active | no reduction in MYC levels |
| Cc1ncsc1-c1ccc(CNC(=O)[C@@H]2C[C@@H](O)CN2C(=O)[C@@H](NC(=O)COCCOCC(=O)NCCCOc2ccc(-c3cc(C(F)(F)F)nn3C)c(O)c2-c2cc(C(F)(F)F)cc(C(F)(F)F)c2)C(C)(C)C)cc1 [CSI135] | – | – | – | – | – | No particular effect | – |
